Test results published in US9884047B1, “Method of treating lung cancer” (Macau University of Science and Technology, priority 2017, dated 2018).

Tests used:
Type in all cases: cell-based
[1] = tested on: A549 NSCLC cells; assay: MTT cytotoxicity assay
Method: (§1) H2122, A549 and H358 non-small cell lung cancer (NSCLC) cells were purchased from ATCC and cultivated with Roswell Park Memorial Institute (RPMI) 1640 medium supplemented with 10% fetal bovine serum (Gibco, Big Cabin, Oklahoma, ME, USA), 100 units/mL penicillin and 100 μg/mL streptomycin (Gibco, Big Cabin, Oklahoma, ME, USA). All the cells were cultivated at 37° C. in a humidified atmosphere of 5% CO2.
(§2) Cells were seeded in a 96-well microplate with 3000, 4000 or 5000 cells/well confluence and cultured overnight for cell adhesion. Different concentrations of compound K017-0105 were added to the microplates, and the microplates were incubated for 24, 48 or 72 hours (h). Each concentration of compound K017-0105 was repeated in triplicate. 10 μL 3-(4,5-Dimethylthiazol-2-yl)-2,5-Diphenyltetrazolium Bromide (MTT) (5 mg/mL) solution was added to every well. After incubating for 4 h, 100 μL dimethyl sulfoxide (DMSO) was added to each well. After shaking for 15 minutes, the absorbance of the microplate was measured at 570 nm (absorbance) and 650 nm (reference) by a microplate reader (Tecan, Morrisville, N.C., USA).

[2] = tested on: H2122 NSCLC cells; assay: MTT cytotoxicity assay
Method: as §1, §2

[3] = tested on: H358 NSCLC cells; assay: MTT cytotoxicity assay
Method: as §1, §2

[4] = tested on: A549 NSCLC cells; assay: Apoptosis analysis (Annexin V/PI flow cytometry); conditions: A549 cells, 0, 5, 10, 20 and 40 μM for 24 h
Method: (§3) H2122, A549 and H358 NSCLC cells were plated in a 6-well plate with 2.0×10^5 cells/well and cultured overnight for attachment. After treatment with compound K017-0105 at 0, 5, 10, 20, 40 μM for 24 h, all cells were harvested by trypsinization and centrifuged at room temperature at 1000 rotations per minute (RPM) for 5 minutes. Cells were re-suspended in 100 μL 1× binding buffer and stained with Annexin V and propidium iodide (PI) staining solution for 15 minutes at room temperature in the dark. Apoptotic cells were quantitatively counted by a BD FACSAria III Flow Cytometer.
(§4) The ability of compound K017-0105 in inducing apoptosis in H2122, H358 and A549 NSCLC cells was examined. H2122, H358 and A549 NSCLC cells were treated with compound K017-0105 at different concentrations (0, 5, 10, 20 and 40 μM) for 24 h. These cells were stained with Annexin V-FITC/PI, and […] was detected by flow cytometry.

[5] = tested on: H2122 NSCLC cells; assay: Apoptosis analysis (Annexin V/PI flow cytometry); conditions: H2122 cells, 0, 5, 10, 20 and 40 μM for 24 h
Method: as §3, §4

[6] = tested on: H358 NSCLC cells; assay: Apoptosis analysis (Annexin V/PI flow cytometry); conditions: H358 cells, 0, 5, 10, 20 and 40 μM for 24 h
Method: as §3, §4

[7] = tested on: normal CCD-19Lu lung cells; assay: MTT cytotoxicity assay; conditions: 72 h
Method: as §2

[8] = tested on: p-CRAF, p-Akt and p-ERK; assay: Western blot analysis of KRAS downstream signaling; conditions: compared with untreated control cells
Method: H2122, H358 and A549 NSCLC cells were rinsed with phosphate-buffered saline (PBS) and lysed in radioimmunoprecipitation assay (RIPA) lysis buffer (Beyotime, China) supplemented with a protease and phosphatase inhibitor cocktail (Thermo Scientific 78440, USA) once for 30 minutes. Cell lysates were centrifuged at 12,000 g for 10 minutes at 4° C. The supernatant was collected, and the protein concentration was calculated with a Bio-Rad detergent compatible (DC™) protein assay kit (Bio-Rad, Philadelphia, Pa., USA). 30 μg protein lysates were loaded and separated by 10% sodium dodecyl sulfate (SDS)-polyacrylamide gel electrophoresis and transferred to a nitrocellulose (NC) membrane. The membranes were incubated with the primary antibody (1:2000) and then with a fluorescence-conjugated secondary antibody (1:10000). Glyceraldehyde 3-phosphate dehydrogenase (GAPDH) was used as the loading control for normalization. The signal of the membranes was scanned with a LI-COR Odyssey Scanner (Belfast, Me., USA).

[9] = tested on: GTP-bound KRAS; assay: RAS-binding domain pull down assay; conditions: 400 of compound, 24 hour treatment
Method: KRAS activation was determined using the rat sarcoma (RAS) activation assay kit (Millipore, 17-218) in accordance with the manufacturer's guidelines. Cell lysates were prepared using Mg2^+ Lysis/wash buffer (MLB). Samples were incubated with 10 μg RAS assay reagent and incubated for 45 minutes at 4° C. Agarose beads were pelleted by centrifugation and washed 3 times with MLB. Agarose beads were re-suspended in loading buffer. Samples were subjected to western blotting, as previously described, and the blots were probed using anti-K-Ras antibody (sc-30, Santa Cruz Biotechnology (SANTA)).

level of GTP-bound KRAS ([9]; A549 NSCLC cells): inhibited | level of GTP-bound KRAS ([9]; H358 NSCLC cells): inhibited | level of GTP-bound KRAS ([9]; H2122 NSCLC cells): inhibited
Structure (SMILES): O=C1Nc2ccccc2/C1=N\Nc1ccc(F)c(Cl)c1 [compound K017-0105]
IC50 ([1]; Homo sapiens, 72 h treatment, mean±SEM): 8.28 ± 2.64 µM | cytotoxicity ([1]; MTT, 72 h): significant cytotoxicity | IC50 ([2]; Homo sapiens, NCI-H2122, 72 h treatment, mean±SEM): 7.19 ± 1.6 µM | cytotoxicity ([2]; MTT, 72 h): significant cytotoxicity | IC50 ([3]; Homo sapiens, NCI-H358, 72 h treatment, mean±SEM): 8.18 ± 1.29 µM | cytotoxicity ([3]; MTT, 72 h): significant cytotoxicity | apoptosis [4]: significantly induced apoptosis | apoptosis [5]: significantly induced apoptosis | apoptosis [6]: significantly induced apoptosis | cytotoxicity [7]: no cytotoxicity | levels of p-CRAF, p-Akt and p-ERK ([8]; A549 NSCLC cells): decreased | levels of p-CRAF, p-Akt and p-ERK ([8]; H358 NSCLC cells): decreased | levels of p-CRAF, p-Akt and p-ERK ([8]; H2122 NSCLC cells): decreased
